Measurements as given in patent US8258258B2, “Dimeric or multimeric microproteins” (BioNTech AG, priority 2005, dated 2012).

tested on: TPOR/4Rα hybrid receptor; test: Ba/F3 luciferase reporter gene assay, TPO competition (antagonist activity); assay type: cell-based, human; conditions: 5 nM TPO and 500 nM of each compound; FIG. 3
Description: The expression vector for the TPOR/4Rα hybrid receptor, pcDNATPOR/4Rα, was constructed as follows. A PCR reaction was performed on a cDNA clone containing the human TPO receptor coding sequence using oligonucleotides TpoR-Xho-lo (5′-[…]-3′; SEQ ID NO.: 18) and TpoR-Xho-up (5′-[…]-3′; SEQ ID No.: 19). The resulting PCR product was digested with XhoI and ligated into similarly digested vector pASKcDNA-NH to yield pASKcDNA-NH-TPOR. pASKcDNA-NH resulted from the subcloning of an NheI/HindIII fragment of pcDNA/4Rα (Krause et al., 2004) in pASK21TETIsendc1/2 (Christmann et al., 1999). From the vector pASKcDNA-NH-TPOR the NheI/HindIII fragment containing the TPOR coding sequence was ligated to similarly digested pcDNA/4Rα to yield pcDNATPOR/4Rα. The STAT6 reporter gene construct pIεTATALuc was generated by insertion of a synthetic Hind III/Bam HI fragment representing the entire promoter/enhancer-sequence from the IL-4 responsive region of the human Iε promoter (Ezernieks et al., 1996) into luciferase expression plasmid pTATALuc+ (Altschmied et al., 1997).
The murine pre-B cell line Ba/F3 was cultured as described (Lischke et al., 1995). Cells were transfected using the cell line Nucleofector™ kit V (Amaxa, Germany). Briefly, 8×10^6 cells were starved for 2 h in RPMI 1640/10% FCS, centrifuged and resuspended in 100 μl of transfection reagent V supplemented with 4 μg of expression vector pcDNATPOR/4Rα and 1 μg of reporter gene construct pIεTATALuc. Transfection was performed with the Nucleofector™ device applying program T16. Each transfection batch was recovered in 3.5 ml RPMI 1640/10% FCS and seeded at 2×10^5 cells/100 μl per well in a 96-well cell culture plate. Cells were left untreated for 1 h and then supplemented with various concentrations of hTPO (Immunotools, Germany) and individual microprotein candidates, respectively, to a total volume of 200 μl. For TPO competition assays cell aliquots were preincubated with individual microprotein samples 1 hour before stimulation with hTPO. After incubation for 12 h at 37° C., 5% CO2, cell lysates were prepared and luciferase activity was measured as described previously (Krause et al., 2004).
These cells were transfected with a gene encoding a fusion of the hTPOR extracellular domain and the intracellular 4Rα domain from human […] and co-transfected with a reporter gene construct pIεTATALuc (Krause et al., 2004). […] The same result was obtained for SE-AG-TP-040 in some assays. On the other hand, agonistic activity was shown for all the microproteins so far tested (Table 1).

Sequence of TPOR/4Rα hybrid receptor (P40238 26-491 limits assumed): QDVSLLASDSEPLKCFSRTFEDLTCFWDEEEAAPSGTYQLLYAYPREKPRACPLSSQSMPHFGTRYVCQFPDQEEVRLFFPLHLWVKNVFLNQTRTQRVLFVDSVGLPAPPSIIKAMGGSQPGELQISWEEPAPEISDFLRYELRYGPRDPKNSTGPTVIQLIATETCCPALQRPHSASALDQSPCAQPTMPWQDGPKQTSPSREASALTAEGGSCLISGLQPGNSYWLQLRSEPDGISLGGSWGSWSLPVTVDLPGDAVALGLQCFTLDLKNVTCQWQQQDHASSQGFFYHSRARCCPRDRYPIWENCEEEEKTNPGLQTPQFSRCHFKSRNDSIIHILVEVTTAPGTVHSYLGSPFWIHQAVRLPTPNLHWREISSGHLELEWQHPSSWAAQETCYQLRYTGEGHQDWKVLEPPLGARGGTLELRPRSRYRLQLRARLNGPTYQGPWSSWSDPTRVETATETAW

Row | Substance | Inhibition of TPO receptor activation (TPO antagonist)
1 | GCVRLHESCLGQQVPCCDPAATCGGTALAiegptlrqwlaaraCKGS (GCVRLHESCLGQQVPCCDPAATCGGTALAIEGPTLRQWLAARACKGS) [SE-AG-TP-040] | able to act as TPO antagonists
2 | GCVRLHESCLGQQVPCCDPAATCiegptlrqwlaaraCKGS (GCVRLHESCLGQQVPCCDPAATCIEGPTLRQWLAARACKGS) [SE-AG-TP-030] | able to act as TPO antagonists
3 | GCiegptlrqwlaaCKQDSDCLAGCVCGPNGFCGS (GCIEGPTLRQWLAACKQDSDCLAGCVCGPNGFCGS) [SE-ET-TP-030] | able to act as TPO antagonists
4 | GCiegptlrqwlaaraCKQDSDCLAGCVCGPNGFCGS (GCIEGPTLRQWLAARACKQDSDCLAGCVCGPNGFCGS) [SE-ET-TP-020] | able to act as TPO antagonists
5 | iegptlrqwlaara (IEGPTLRQWLAARA) [SE-LN-TP-020, reference compound] | able to act as TPO antagonists

tested on: platelet count; test: In vivo platelet expansion test; conditions: Balb/c mice, 10 and 1000 μg/kg twice daily s.c., after 5 days; FIG. 7
Description: To assess the in vivo function of SE-ET-TP-020, Balb/c mice (n=5) were treated twice daily with 10 and 1000 μg/kg, respectively, SE-ET-TP-020 by subcutaneous injection. After 5 days, platelet count was measured in comparison to corresponding placebo experiments.

Row | Substance | Platelet count versus placebo
6 | GCiegptlrqwlaaraCKQDSDCLAGCVCGPNGFCGS (GCIEGPTLRQWLAARACKQDSDCLAGCVCGPNGFCGS) [SE-ET-TP-020] | doubling of the platelet count
